ChEMBL document CHEMBL3217653, “Design and synthesis of -amino alcohol based -lactamisatin chimeras and preliminary analysis of in vitro activity against the protozoal pathogen Trichomonas vaginalis” (Medchemcomm, 2013)

Key:
Trichomonas vaginalis [1] = experiment: Antimicrobial activity against Trichomonas vaginalis G3 assessed as growth inhibition after 24 hrs by hemocytometry; assay type: functional; details: G3, 24 h
Trichomonas vaginalis [2] = experiment: Antimicrobial activity against Trichomonas vaginalis G3 assessed as growth inhibition at 50 uM after 24 hrs by hemocytometry; assay type: functional; details: G3, 24 h, read-out: GI
[3] = Cytotoxicity against human HeLa cells assessed as cell viability at 10 uM after 24 hrs by trypan blue assay relative to bleomycin; assay type: cell-based; details: read-out: Activity

Row | Compound | IC50 (Trichomonas vaginalis [1]) [µM] | inhibition of growth at 50 µM (Trichomonas vaginalis [2]) [%] | viability at 24 h, 10 µM [3] [%]
1 | O=C1C(=O)N(CC(CO)N[C@@H]2C(=O)N(c3ccc(Cl)cc3)[C@@H]2/C=C/c2ccccc2)c2ccccc21 (some centres undefined) | 24.7 | 76.2 | –
2 | Cc1ccc2c(c1)C(=O)C(=O)N2CC(CO)N[C@@H]1C(=O)N(c2ccc(Cl)cc2)[C@@H]1/C=C/c1ccccc1 (some centres undefined) | 14.6 | 97.6 | –
3 | O=C1C(=O)N(CC(CO)N[C@@H]2C(=O)N(c3ccc(Cl)cc3)[C@@H]2/C=C/c2ccccc2)c2ccc(F)cc21 (some centres undefined) | 27.4 | 77.2 | –
4 | Cc1ccc(N2C(=O)[C@@H](NC(CO)CN3C(=O)C(=O)c4ccccc43)[C@H]2/C=C/c2ccccc2)cc1 (relative stereo) | 19.2 | 95.3 | –
5 | O=C1C(=O)N(CC(CO)N[C@@H]2C(=O)N(C3CCCCC3)[C@@H]2/C=C/c2ccccc2)c2ccccc21 (relative stereo) | 18.5 | 93.6 | –
6 | Cc1ccc(N2C(=O)[C@@H](NC(CO)CN3C(=O)C(=O)c4cc(C)ccc43)[C@H]2/C=C/c2ccccc2)cc1 (relative stereo) | – | 56 | –
7 | Cc1ccc2c(c1)C(=O)C(=O)N2CC(CO)N[C@@H]1C(=O)N(C2CCCCC2)[C@@H]1/C=C/c1ccccc1 (relative stereo) | – | 70.8 | –
8 | Cc1ccc(N2C(=O)[C@@H](NC(CO)CN3C(=O)C(=O)c4cc(Cl)ccc43)[C@H]2/C=C/c2ccccc2)cc1 (relative stereo) | – | 59.8 | –
9 | O=C1C(=O)N(CC(CO)N[C@@H]2C(=O)N(c3ccc(Cl)cc3)[C@@H]2/C=C/c2ccccc2)c2ccc(Cl)cc21 (relative stereo) | 9.73 | 97.1 | 30
10 | O=C1C(=O)N(CC(CO)N[C@@H]2C(=O)N(C3CCCCC3)[C@@H]2/C=C/c2ccccc2)c2ccc(Cl)cc21 (relative stereo) | – | 61.8 | –
11 | Cc1ccc(N2C(=O)[C@@H](NC(CO)CN3C(=O)C(=O)c4cc(F)ccc43)[C@H]2/C=C/c2ccccc2)cc1 (relative stereo) | – | 71.9 | –
12 | O=C1C(=O)N(CC(CO)N[C@@H]2C(=O)N(C3CCCCC3)[C@@H]2/C=C/c2ccccc2)c2ccc(F)cc21 (relative stereo) | – | 64.6 | –
